“And” between values parts separate entries of the source, which are not always exact repeats. Identical values can stand only once.
Assays:
[1] = test system: small-flower umbrella sedge (CYPDI); test: Test G paddy mixture test (Colby); assay type: in vivo, Cyperus difformis; details: applied alone, 14 d; for CYPDI Obsd. plant response rating (scale 0 to 100): flooded; for CYPDI Obsd.: scale 0-100
Method: (§1) Seeds of small-flower umbrella […], Cyperus difformis) and […], Heteranthera limosa) were sown on the soil surface in two separate quadrants of 11-cm (4-inch) tubs filled with steam pasteurized Tama soil. Simultaneously, plantings of […], Echinochloa crus-galli) and transplanted japonica rice (ORYSA, Oryza sativa) were established in separate “plug” flats. […] Herbicide application timing was targeted at the 2.0 to 2.5 leaf stage and the plants were treated with test chemicals formulated in a non-phytotoxic solvent. Treated plants and controls were maintained in a greenhouse for 14 d, after which time all species were compared to controls and visually evaluated. Plant response ratings are summarized in Tables G1 through G12, and are based on a scale of 0 to 100 where 0 is no effect and 100 is complete control. A dash (-) response means no test result. Colby's Equation was used to determine the herbicidal effects expected from the mixtures. Colby's Equation (Colby, S. R. “Calculating Synergistic and Antagonistic Responses of Herbicide Combinations,” Weeds, 15(1), pp 20-22 (1967)) calculates the expected additive effect of herbicidal mixtures and for two active ingredients is of the form: Pa+b=Pa+Pb-(PaPb/100) where • Pa+b is the percentage effect of the mixture expected from additive contribution of the individual components: • Pa is the observed percentage effect of the first active ingredient at the same use rate as in the mixture, and • Pb is the observed percentage effect of the second active ingredient at the same use rate as in the mixture. In the following Tables, rates are shown in grams of active ingredient per […]); “Obsd.” is the observed effect. “Exp.” is the expected effect calculated from Colby's Equation.

barnyardgrass (ECHCG) = test: Test G paddy mixture test (Colby); assay type: in vivo, Echinochloa crus-galli; details: applied alone, 14 d; for ECHCG Obsd. plant response rating (scale 0 to 100): flooded; for ECHCG Obsd.: scale 0-100
Method: as §1

[2] = test system: transplanted japonica rice (ORYSA); test: Test G paddy mixture test (Colby); assay type: in vivo, Oryza sativa; details: applied alone, 14 d; for ORYSA Obsd. plant response rating (scale 0 to 100): flooded; for ORYSA Obsd.: scale 0-100
Method: as §1

ducksalad (HETLI) = test: Test G paddy mixture test (Colby); assay type: in vivo, Heteranthera limosa; details: applied alone, 14 d; for HETLI Obsd. plant response rating (scale 0 to 100): flooded; for HETLI Obsd.: scale 0-100
Method: as §1

giant foxtail (SETFA) = test: Test H preemergence mixture test (Colby); assay type: in vivo, Setaria faberii; details: Mesotrione alone 16 g a.i./ha, 21 d after treatment, scale 0 to 100
Excerpt: (§2) Colby's Equation was used to determine the herbicidal effects expected from the mixtures. Colby's Equation (Colby, S. R. “Calculating Synergistic and Antagonistic Responses of Herbicide Combinations,” Weeds, 15(1), pp 20-22 (1967)) calculates the expected additive effect of herbicidal mixtures and for two active ingredients is of the form: Pa+b=Pa+Pb−(PaPb/100)
(§3) where • Pa+b is the percentage effect of the mixture expected from additive contribution of the individual components: • Pa is the observed percentage effect of the first active ingredient at the same use rate as in the mixture, and • Pb is the observed percentage effect of the second active ingredient at the same use rate as in the mixture. In the following Tables, rates are shown in grams of active ingredient per hectare (g a.i./ha); “Obsd.” is the observed effect. “Exp.” is the expected effect calculated from Colby's Equation.
(§4) This test evaluated the effect of mixtures of compound 80 with several commercial herbicides on four plant species. Seeds of plant species selected from corn (ZEAMD, Zea mays), soybean (GLXMA, Glycine max), waterhemp (common waterhemp, AMATA, Amaranthus rudis), and giant foxtail (SETFA, Setaria faberii) were planted into a silt loam soil and treated preemergence with test chemicals formulated in a non-phytotoxic solvent mixture which included a surfactant and applied using a volume of 281 L/ha. Each treatment was replicated three times. Treated plants and controls were maintained in a greenhouse using supplemental lighting to maintain a photoperiod of about 16 h; daytime and nighttime temperatures were about 24-30° C. and 19-21° C., respectively. Nutrients were applied using a balanced fertilizer applied through the watering system. At 21 d after treatment, all species were compared to controls and visually evaluated. Plant response ratings were calculated as the means of the three replicates, are summarized in Tables H1 through H5, and are based on a scale of 0 to 100 where 0 is no effect and 100 is complete control. A dash (-) response means no test result. The Expected (Exp.) results were calculated using Colby's Equation as described for Test G above.

soybean (GLXMA) = test: Test H preemergence mixture test (Colby); assay type: in vivo, Glycine max; details: Mesotrione alone 16 g a.i./ha, 21 d after treatment, scale 0 to 100
Excerpt: as §2, §3, §4

corn (ZEAMD) = test: Test H preemergence mixture test (Colby); assay type: in vivo, Zea mays; details: Mesotrione alone 16 g a.i./ha, 21 d after treatment, scale 0 to 100
Excerpt: as §2, §3, §4

waterhemp (AMATA) = test: Test H preemergence mixture test (Colby); assay type: in vivo, Amaranthus rudis; details: Mesotrione alone 16 g a.i./ha, 21 d after treatment, scale 0 to 100
Excerpt: as §2, §3, §4

Row | SMILES | CYPDI Obsd. plant response rating (scale 0 to 100) ([1]; 100 g a.i./ha) | ECHCG Obsd. plant response rating (scale 0 to 100) (barnyardgrass (ECHCG); 100 g a.i./ha) | ORYSA Obsd. plant response rating (scale 0 to 100) ([2]; 100 g a.i./ha) | HETLI Obsd. plant response rating (scale 0 to 100) (ducksalad (HETLI); 100 g a.i./ha) | CYPDI Obsd. ([1]; 20 g a.i./ha) | ECHCG Obsd. (barnyardgrass (ECHCG); 20 g a.i./ha) | ORYSA Obsd. ([2]; 20 g a.i./ha) | HETLI Obsd. (ducksalad (HETLI); 20 g a.i./ha) | other results
1 | CCN(C(=O)n1nnn(-c2ccccc2Cl)c1=O)C1CCCCC1 [Fentrazamide] | 90 and 100 | 50 and 85 | 0 | 85 and 100 |  |  |  |  | CYPDI Obsd. plant response rating (scale 0 to 100) ([1]; 200 g a.i./ha): 100; ECHCG Obsd. plant response rating (scale 0 to 100) (barnyardgrass (ECHCG); 200 g a.i./ha): 95 and 85; HETLI Obsd. plant response rating (scale 0 to 100) (ducksalad (HETLI); 200 g a.i./ha): 100
2 | CN(C(=O)COc1nc2ccccc2s1)c1ccccc1 [Mefenecet] |  |  |  |  |  |  |  |  | CYPDI Obsd. ([1]; 300 g a.i./ha): 100; HETLI Obsd. (ducksalad (HETLI); 300 g a.i./ha): 100
3 | CS(=O)(=O)c1ccc(C(=O)C2C(=O)CCCC2=O)c([N+](=O)[O-])c1 [Mesotrione, reference compound] |  |  |  |  |  |  |  |  | Plant response rating, Obsd., SETFA (giant foxtail (SETFA)): 0; Plant response rating, Obsd., GLXMA (soybean (GLXMA)): 25; Plant response rating, Obsd., ZEAMD (corn (ZEAMD)): 12; Plant response rating, Obsd., AMATA (waterhemp (AMATA)): 96
4 | COCc1cccc(C(O)c2nc(OC)cc(OC)n2)c1NS(=O)(=O)C(F)F (centres unmarked) [Pyrimisulfan] |  |  |  |  | 98 and 100 | 75 and 80 | 25 and 20 | 100 | 
5 | CS(=O)(=O)c1ccc(C(=O)C2C(=O)CCCC2=O)c(Cl)c1COCC1CCCO1 (centres unmarked) [Tefuryltrione] | 100 | 40 | 0 | 100 |  |  |  |  | CYPDI Obsd. ([1]; 100 g a.i./ha): 90; ECHCG Obsd. (barnyardgrass (ECHCG); 100 g a.i./ha): 0; ORYSA Obsd. ([2]; 100 g a.i./ha): 0; HETLI Obsd. (ducksalad (HETLI); 100 g a.i./ha): 90
6 | COc1nc(OC)nc(C(=O)c2cccc(F)c2N(C)S(=O)(=O)C(F)F)n1 [Triafamone, N-[2-[(4,6-dimethoxy-1,3,5-triazin-2-yl)carbonyl]-6-fluorophenyl]-1,1-difluoro-N-methylmethanesulfonamide] |  |  |  |  | 0 | 90 and 85 | 0 | 0 | 

From patent US10294202B2, “Pyrrolidinones as herbicides” (FMC Corporation, priority 2013, dated 2019)
